Reference: patent US20230159527A1, “COMPOUNDS AS BCL-2 INHIBITORS” (Fochon Pharmaceuticals, Ltd., priority 2020, published 2023)
Read-outs that look alike come from different tables or passages of the source.

Experiments:
Toledo cells = assay: Cell proliferation assay, Toledo cells (MTS, 72 h); assay type: cell-based; conditions: Toledo cells, MTS, read-out: Toledo IC50
Summary of the method: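 Toledo cells (30000/well, RPMI-1640 with 10% FBS) were preincubated for 4 h. They were then exposed to nine compound concentrations from 10000 to 1.5 nM for 72 h at 37 °C, 5% CO2. MTS was added for 2 h and absorbance read at 490 nm to give IC50.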

RS4;11-BCL-2 G101V cells = assay: Cell proliferation assay, engineered RS4;11 cells stably overexpressing BCL-2 G101V (MTS, 168 h); assay type: cell-based; conditions: read-out: RS4, 11 BCL2- G101V
Method: MTS testing kit was purchased from Promega (Madison, Wis., USA). The RPMI-1640, Fetal bovine serum and Penicillin-Streptomycin were purchased from BI (Biological Industries, Beit Haemek, Israel). Puromycin was purchased from Beyotime (shanghai, China). Dimethyl sulfoxide (DMSO) was purchased from Sigma (St. Louis, Mo., USA). RS4;1l-BCL-2 G101V and RS4;11-BCL-2 F104L cells were cultured in RPM11640 supplemented with 1 ug/mL puromycin, 100 U/mL Penicillin-Streptomycin and 10% FBS.
To investigate whether a compound is able to inhibit the activity of BCL-2 mutation in cells, a mechanism-based assay using engineered cell lines stably overexpressing BCL-2 mutation ([…] and […]) was developed. In this assay, the inhibition of BCL-2 mutation was reflected by the inhibition of cell proliferation of RS4;11-BCL-2 G101V and RS4;11-BCL-2 F104L cells. Cells were plated into 96-well plates at optimized cell density (RS4;11-BCL-2 G101V: 5000 cells/well; RS4;11-BCL-2 F104L: 5000 cells/well). Plates were incubated at 37° C., with 5% CO2 for 4 h. Compounds were serially diluted to the final-concentrations of 10000, 3333.3, 1111.1, 370.4, 123.5, 41.2, 13.7, 4.6 and 1.4 nM and added to the plates. Plates were incubated at 37° C., with 5% CO2 for 168 h. 20 μl MTS was added into each well and the plates were incubated at 37° C., with 5% CO2 exactly for 2 h. The absorbance was measured by a microplate reader at 490 nm. IC50 values were calculated using GraphPad Prism 5.0 software.

Compound | IC50 (RS4;11-BCL-2 G101V cells) [nM] | IC50 (RS4;11-BCL-2 G101V cells; Homo sapiens, RS4-11, 168 h) [nM] | IC50 (Toledo cells; Homo sapiens) [nM] | IC50 (Toledo cells) [nM]
CC(C)c1ccccc1[C@@H]1CCC[C@@H]1N1CC2(CCN(c3ccc(C(=O)NS(=O)(=O)c4ccc(NC[C@H]5CC[C@](C)(O)CC5)c([N+](=O)[O-])c4)c(Oc4cnc5[nH]cc(F)c5c4)c3)CC2)C1 (single isomer, unassigned) [Example D-34a, 2-((3-fluoro-1H-pyrrolo[2,3-b]pyridin-5-yl)oxy)-N-((4-((1r,4r)-4-hydroxy-4-methylcyclohexyl)methyl)amino)-3-nitrophenyl) sulfonyl)-4-(2-((1S,2S or 1R,2R)-2-(2-isopropylphenyl)cyclopentyl)-2,7-diazaspiro[3.5]nonan-7-yl)benzamide] | 18 | – | 1 | –
CCOc1nc2[nH]ccc2cc1Oc1cc(N2CCC3(CC2)CN([C@H]2CCC[C@H]2c2ccccc2C(C)C)C3)ccc1C(=O)NS(=O)(=O)c1ccc(NC[C@H]2CC[C@](C)(O)CC2)c([N+](=O)[O-])c1 (single isomer, unassigned) [Example D-92, 2-((6-ethoxy-1H-pyrrolo[2,3-b]pyridin-5-yl)oxy)-N-((4-((((1r,4r)-4-hydroxy-4-methylcyclohexyl)methyl)amino)-3-nitrophenyl)sulfonyl)-4-(2-((1S,2S or 1R,2R)-2-(2-isopropylphenyl)cyclopentyl)-2,7-diazaspiro[3.5]nonan-7-yl)benzamide] | – | 1 | 1 | –
COCCOc1nc2[nH]ccc2cc1Oc1cc(N2CCC3(CC2)CN([C@H]2CCC[C@H]2c2ccccc2C(C)C)C3)ccc1C(=O)NS(=O)(=O)c1cc2c(c([N+](=O)[O-])c1)N[C@@H]([C@H]1CC[C@](C)(O)CC1)CO2 (single isomer, unassigned) [Example D-75b, N-(((S)-3-((1r,4S)-4-hydroxy-4-methylcyclohexyl)-5-nitro-3,4-dihydro-2H-benzo[b][1,4]oxazin-7-yl)sulfonyl)-4-(2-((1S,2S or 1R,2R)-2-(2-isopropylphenyl)cyclopentyl)-2,7-diazaspiro[3.5]nonan-7-yl)-2-((6-(2-methoxyethoxy)-1H-pyrrolo[2,3-b]pyridin-5-yl)oxy) benzamide] | – | 16 | 1 | –
CC(C)c1ccccc1[C@@H]1CCC[C@@H]1N1CC2(CCN(c3ccc(C(=O)NS(=O)(=O)c4cc5c(c([N+](=O)[O-])c4)N[C@@H]([C@H]4CC[C@](C)(O)CC4)CO5)c(Oc4cnc5[nH]cc(F)c5c4)c3)CC2)C1 (single isomer, unassigned) [Example D-28a, 2-((3-fluoro-1H-pyrrolo[2,3-b]pyridin-5-yl)oxy)-N-(((S)-3-((1r,4S)-4-hydroxy-4-methylcyclohexyl)-5-nitro-3,4-dihydro-2H-benzo[b] [1,4]oxazin-7-yl)sulfonyl)-4-(2-((1S,2S or 1R,2R)-2-(2-isopropylphenyl)cyclopentyl)-2,7-diazaspiro[3.5]nonan-7-yl)benzamide] | 1 | – | – | 1
CC(C)c1ccccc1[C@@H]1CN(S(C)(=O)=O)CCN1C1CC2(CCN(c3ccc(C(=O)NS(=O)(=O)c4cc5c(c([N+](=O)[O-])c4)N[C@@H]([C@H]4CC[C@](C)(O)CC4)CO5)c(Oc4cnc5[nH]cc(F)c5c4)c3)CC2)C1 (single isomer, unassigned) [Example D-80, 2-((3-fluoro-1H-pyrrolo[2,3-b]pyridin-5-yl)oxy)-N-(((S)-3-((1r,4S)-4-hydroxy-4-methylcyclohexyl)-5-nitro-3,4-dihydro-2H-benzo[b] [1,4]oxazin-7-yl)sulfonyl)-4-(2-((R or S)-2-(2-isopropylphenyl)-4-(methylsulfonyl)piperazin-1-yl)-7-azaspiro[3.5]nonan-7-yl)benzamide] | – | 8 | 1 | –
CC(C)c1ccccc1[C@@H]1CN(C(=O)C2CC2)CCN1C1CC2(CCN(c3ccc(C(=O)NS(=O)(=O)c4cc5c(c([N+](=O)[O-])c4)N[C@@H]([C@H]4CC[C@](C)(O)CC4)CO5)c(Oc4cnc5[nH]cc(F)c5c4)c3)CC2)C1 (single isomer, unassigned) [Example D-82, 4-(2-((R or S)-4-(cyclopropanecarbonyl)-2-(2-isopropylphenyl)piperazin-1-yl)-7-azaspiro[3.5]nonan-7-yl)-2-((3-fluoro-1H-pyrrolo[2,3-b]pyridin-5-yl)oxy)-N-(((S)-3-((1r,4S)-4-hydroxy-4-methylcyclohexyl)-5-nitro-3,4-dihydro-2H-benzo[b][1,4]oxazin-7-yl)sulfonyl)benzamide] | – | 19 | 1 | –
CCOc1nc2[nH]ccc2cc1Oc1cc(N2CCC3(CC2)CN([C@H]2CCC[C@H]2c2ccccc2C(C)C)C3)ccc1C(=O)NS(=O)(=O)c1cnc(NC[C@H]2CC[C@](C)(O)CC2)c([N+](=O)[O-])c1 (single isomer, unassigned) [Example A-161, 2-((6-ethoxy-1H-pyrrolo[2,3-b]pyridin-5-yl)oxy)-N-((6-(((1r,4r)-4-hydroxy-4-methylcyclohexyl)methyl)amino)-5-nitropyridin-3-yl)sulfonyl)-4-(2-((1S,2S or 1R,2R)-2-(2-isopropylphenyl)cyclo-pentyl)-2,7-diazaspiro[3.5]nonan-7-yl) benzamide] | – | 2 | 1 | –

Continued, in another order:

IC50 (RS4;11-BCL-2 G101V cells) [nM] | IC50 (RS4;11-BCL-2 G101V cells; Homo sapiens, RS4-11, 168 h) [nM] | Compound | IC50 (Toledo cells; Homo sapiens) [nM] | IC50 (Toledo cells) [nM]
– | 2 | CO[C@@H](C)COc1nc2[nH]ccc2cc1Oc1cc(N2CCC3(CC2)CC(N2CCC[C@H]2c2ccccc2C(C)C)C3)ccc1C(=O)NS(=O)(=O)c1cc2c(c([N+](=O)[O-])c1)N[C@@H]([C@H]1CC[C@](C)(O)CC1)CO2 (single isomer, unassigned) [Example D-202, N-(((S)-3-((1r,4S)-4-hydroxy-4-methylcyclohexyl)-5-nitro-3,4-dihydro-2H-benzo[b][1,4]oxazin-7-yl)sulfonyl)-4-(2-((R or S)-2-(2-isopropylphenyl)pyrrolidin-1-yl)-7-azaspiro[3.5]nonan-7-yl)-2-((6-((S)-2-methoxypropoxy)-1H-pyrrolo[2,3-b]pyridin-5-yl)oxy)benzamide] | 1 | –
– | 1 | CC(C)c1ccccc1[C@@H]1CCCN1C1CC2(CCN(c3ccc(C(=O)NS(=O)(=O)c4cc5c(c([N+](=O)[O-])c4)N[C@@H]([C@H]4CC[C@](C)(O)CC4)CO5)c(Oc4cc5cc[nH]c5nc4OC4CN(C)C4)c3)CC2)C1 (single isomer, unassigned) [Example D-201, N-(((S)-3-((1r,4S)-4-hydroxy-4-methylcyclohexyl)-5-nitro-3,4-dihydro-2H-benzo[b][1,4]oxazin-7-yl)sulfonyl)-4-(2-((R or S)-2-(2-isopropylphenyl)pyrrolidin-1-yl)-7-azaspiro[3.5]nonan-7-yl)-2-((6-((1-methylazetidin-3-yl)oxy)-1H-pyrrolo[2,3-b]pyridin-5-yl)oxy)benzamide] | 1 | –
– | 17 | CC(C)c1ccccc1[C@@H]1CCCN1C1CC2(CCN(c3ccc(C(=O)NS(=O)(=O)c4cc5c(c([N+](=O)[O-])c4)N[C@@H]([C@H]4CC[C@](C)(O)CC4)CO5)c(Oc4cc5cc[nH]c5nc4OC4COC4)c3)CC2)C1 (single isomer, unassigned) [Example D-72, N-(((S)-3-((1r,4S)-4-hydroxy-4-methylcyclohexyl)-5-nitro-3,4-dihydro-2H-benzo[b][1,4]oxazin-7-yl)sulfonyl)-4-(2-((R or S)-2-(2-isopropylphenyl)pyrrolidin-1-yl)-7-azaspiro[3.5]nonan-7-yl)-2-((6-(oxetan-3-yloxy)-1H-pyrrolo[2,3-b]pyridin-5-yl)oxy) benzamide] | 1 | –
– | 13 | CC(C)c1ccccc1[C@@H]1CCCN1C1CC2(CCN(c3ccc(C(=O)NS(=O)(=O)c4cc5c(c([N+](=O)[O-])c4)N[C@@H]([C@H]4CC[C@](C)(O)CC4)CO5)c(Oc4cc5cc[nH]c5nc4O[C@H]4CCN(C)C4)c3)CC2)C1 (single isomer, unassigned) [Example D-226, N-(((S)-3-((1r,4S)-4-hydroxy-4-methylcyclohexyl)-5-nitro-3,4-dihydro-2H-benzo[b][1,4]oxazin-7-yl)sulfonyl)-4-(2-((R or S)-2-(2-isopropylphenyl)pyrrolidin-1-yl)-7-azaspiro[3.5]nonan-7-yl)-2-((6-(((5)-1-methylpyrrolidin-3-yl)oxy)-1H-pyrrolo[2,3-b]pyridin-5-yl)oxy)benzamide] | 1 | –
– | 12 | COc1nc2[nH]ccc2cc1Oc1cc(N2CCC3(CC2)CN([C@H]2CCC[C@H]2c2ccccc2C(C)C)C3)ccc1C(=O)NS(=O)(=O)c1cc2c(c([N+](=O)[O-])c1)N[C@@H]([C@H]1CC[C@](C)(O)CC1)CO2 (single isomer, unassigned) [Example D-97, N-(((S)-3-((1r,4S)-4-hydroxy-4-methylcyclohexyl)-5-nitro-3,4-dihydro-2H-benzo[b][1,4]oxazin-7-yl)sulfonyl)-4-(2-((1S,2S or 1R,2R)-2-(2-isopropylphenyl)cyclopentyl)-2,7-diazaspiro[3.5]nonan-7-yl)-2-((6-methoxy-1H-pyrrolo [2,3-b]pyridin-5-yl)oxy)benzamide] | 1 | –
